In US20200353107A1, “IN VIVO IMAGING OF TUMOR INFILTRATION LEUKOCYTES” (STC.UNM, priority 2017, published 2020):

Legend:
LFA-1 receptor = target: T1, LFA-1 receptor (Mus musculus, UniProt P24063); assay: SPECT/CT imaging of mice after intravenous injection of the radioligand; format: in vivo
T1 construct: Leukocyte function-associated antigen-1 (LFA-1) receptors are normally expressed by all white blood cells; from tissue; host or cells: live mice (leukocytes in vivo)
Procedure: Mice are imaged with the Bioscan NanoSPECT/CT imaging system. Dynamic images are obtained immediately following injection of ˜750 uCi of ^111In-ROTA-alkylamino-NorBIRT intravenously. Static images are also obtained at 2, 4, and 24 hours post injection. Images are individually characterized.

[1] = Biodistribution study (gross dissection and tissue harvest); format: in vivo, mice; conditions: dissection at 18 and 24 hrs post-inoculation
Procedure: […] Results are evaluated as the percent injected dose per gram of tissue. The organs assessed are the heart, blood, stomach, liver, spleen, adrenals, kidneys, bone, muscle, bladder, testes, as well as the abcess or site of infection.

T1 sequence (P24063 24-1162): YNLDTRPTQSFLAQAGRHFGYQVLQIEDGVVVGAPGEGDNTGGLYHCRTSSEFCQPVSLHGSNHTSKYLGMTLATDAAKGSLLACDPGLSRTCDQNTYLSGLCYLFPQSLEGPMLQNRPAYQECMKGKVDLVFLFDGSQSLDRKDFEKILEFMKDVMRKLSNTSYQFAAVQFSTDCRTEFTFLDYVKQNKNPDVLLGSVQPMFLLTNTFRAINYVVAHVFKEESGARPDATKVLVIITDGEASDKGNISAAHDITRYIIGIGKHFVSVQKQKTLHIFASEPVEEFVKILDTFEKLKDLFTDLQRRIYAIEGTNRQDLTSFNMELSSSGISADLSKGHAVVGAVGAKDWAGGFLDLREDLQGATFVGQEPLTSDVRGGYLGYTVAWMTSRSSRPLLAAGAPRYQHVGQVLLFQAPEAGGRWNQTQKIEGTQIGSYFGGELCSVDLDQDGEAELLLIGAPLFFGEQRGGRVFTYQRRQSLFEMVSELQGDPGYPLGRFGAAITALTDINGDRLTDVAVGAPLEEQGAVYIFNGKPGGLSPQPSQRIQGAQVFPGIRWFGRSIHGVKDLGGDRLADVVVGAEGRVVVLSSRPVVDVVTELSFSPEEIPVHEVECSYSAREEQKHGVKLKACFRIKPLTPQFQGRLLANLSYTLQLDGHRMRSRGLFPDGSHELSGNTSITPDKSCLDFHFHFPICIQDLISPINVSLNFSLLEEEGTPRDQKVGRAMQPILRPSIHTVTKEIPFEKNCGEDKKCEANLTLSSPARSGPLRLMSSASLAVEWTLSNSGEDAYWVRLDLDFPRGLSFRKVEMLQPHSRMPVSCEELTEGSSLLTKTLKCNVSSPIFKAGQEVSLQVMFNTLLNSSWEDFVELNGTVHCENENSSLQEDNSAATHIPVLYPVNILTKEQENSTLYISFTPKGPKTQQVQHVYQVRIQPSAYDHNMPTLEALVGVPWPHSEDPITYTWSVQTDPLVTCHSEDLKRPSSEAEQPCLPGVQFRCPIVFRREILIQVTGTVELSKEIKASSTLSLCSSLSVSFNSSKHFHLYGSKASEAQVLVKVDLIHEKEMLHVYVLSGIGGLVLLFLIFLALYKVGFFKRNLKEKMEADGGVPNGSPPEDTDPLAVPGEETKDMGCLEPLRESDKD
T1 sequence (P11835 24-771 partner): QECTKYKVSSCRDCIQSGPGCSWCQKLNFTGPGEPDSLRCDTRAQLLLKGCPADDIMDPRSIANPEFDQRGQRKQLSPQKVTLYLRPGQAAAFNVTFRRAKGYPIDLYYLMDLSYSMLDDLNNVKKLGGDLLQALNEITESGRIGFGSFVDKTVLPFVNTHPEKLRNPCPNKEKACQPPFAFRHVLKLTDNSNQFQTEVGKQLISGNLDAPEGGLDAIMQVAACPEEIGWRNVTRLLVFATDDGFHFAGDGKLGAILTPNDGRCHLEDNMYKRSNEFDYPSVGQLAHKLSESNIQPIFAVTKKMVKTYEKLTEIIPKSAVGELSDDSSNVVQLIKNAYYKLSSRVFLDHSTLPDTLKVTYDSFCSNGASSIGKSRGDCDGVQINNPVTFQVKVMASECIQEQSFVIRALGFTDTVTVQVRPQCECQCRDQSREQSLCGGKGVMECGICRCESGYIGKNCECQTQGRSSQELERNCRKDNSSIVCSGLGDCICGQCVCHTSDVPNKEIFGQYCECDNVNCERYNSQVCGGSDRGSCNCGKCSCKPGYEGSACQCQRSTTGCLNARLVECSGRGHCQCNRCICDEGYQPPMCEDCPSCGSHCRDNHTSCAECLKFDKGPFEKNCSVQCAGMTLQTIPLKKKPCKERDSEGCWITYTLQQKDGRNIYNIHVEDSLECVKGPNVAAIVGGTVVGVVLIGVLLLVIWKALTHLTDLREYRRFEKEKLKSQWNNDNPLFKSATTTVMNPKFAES

uptake/retention at the tumor, early images (LFA-1 receptor; 5 minutes post-injection): high concentrations
focal retention in other tissues (LFA-1 receptor; SPECT/CT images): no focal retention in any other tissues
uptake in the tumor in SPECT/CT images (LFA-1 receptor; SPECT/CT images, mice, i.v.): focal uptake in the tumor
persistence of focal tumor uptake (LFA-1 receptor; all time points, including 24 hours post-injection): persists at all time points
urinary excretion in SPECT/CT images (LFA-1 receptor; as soon as 5 minutes post-injection and at all subsequent time points): prompt and significant urinary excretion
selectivity as imaging probe for LFA-1 receptor expression (LFA-1 receptor; in vivo SPECT/PET imaging of tumor sites): highly selective imaging probes
Substance: ^111In-DOTA-alkylamino-NorBIRT [^111In-alkylaminoNorBIRT]
radioactivity in the bladder (LFA-1 receptor; SPECT/CT images): prompt and significant radioactivity in the bladder
agreement of biodistribution data with image-based pharmacokinetic data [1]: correlate well with image-based pharmacokinetic data
